Test results from patent publication US20250099496A1, “Dihydronicotinamide Riboside (NRH) Therapy for Osteoarthritis and other Conditions” (The Regents of the University of California, priority 2022, published 2025).

Tests used:
[1] = metabolized by PNP; cited from earlier work
[2] = cited from earlier work
human OA chondrocytes [3] = assay: IL-1β-induced nitric oxide (NO) generation in human OA chondrocytes; format: cell-based; details: for concentration at which significant inhibition of IL-1β-induced NO release was observed when used alone: chondrocytes, previously demonstrated
Description: The effectiveness of NR on inhibition of IL-1β-induced nitric oxide (NO) generation in human chondrocytes was influenced by the presence or absence of serum (which contains PNP) in the cell culture media. Human OA chondrocytes (donor OA278) were treated with a PNP inhibitor Ulodesine (5 uM) for 2 h and then NR (10 or 100 uM) for 1 h, followed by IL1β (2 ng/ml) for 24 h under serum (10% FCS)-present (FIG. 6A) or serum-free condition (FIG. 6B). The conditioned media was used for measuring generation of nitric oxide (NO), a known contributor of cartilage degradation.
Effectiveness of combination of low-dose of NAD precursors (NR or NRH) with a PNP inhibitor Ulodesine on inhibition of IL-1β-induced nitric oxide (NO) generation in human chondrocytes under the serum-presence condition. Human OA chondrocytes from donor OA277 (FIG. 7A) or OA279 (FIG. 7B) were treated with Ulodesine (5 uM) for 2 h and then NR or NRH at 10 uM for 1 h, followed by IL1p (2 ng/ml) for 24 h under serum-present (10% FCS) condition. The conditioned media was used for measuring NO generation.

[4] = tested on: MSU crystal-induced inflammation; assay: MSU crystal-induced inflammation in the gout-like air pouch model in mice; format: in vivo; details: via gavage, 400 mg/kg/day
Description: It was observed that blood NAD levels decrease, correlated with increase in CD38 expression in peripheral blood mononuclear cells in gout patients compared to healthy subjects. […] The effect of oral supplementation of NR or NRH (via gavage, 400 mg/kg/day) on MSU crystal-induced inflammation in the gout-like air pouch model in mice was tested (FIG. 8). The development of the air pouch leads to a pouch lining tissue that is morphologically like the synovium in joints, in which injection of sterile-filtered air under the skin on the back of the test animal provides an environment that is used to simulate the effects of diseases such as gout. […] Given the potential of Ulodesine in lowering uric acid and of NR or NRH in limiting MSU crystal-induced inflammation, combination of NR or NRH with Ulodesine, or other PNP inhibitors, presents a novel therapeutic approach for gout.

PNP = PNP (Homo sapiens, UniProt P00491); details: cited from earlier work
PNP, sequence (P00491 whole entry): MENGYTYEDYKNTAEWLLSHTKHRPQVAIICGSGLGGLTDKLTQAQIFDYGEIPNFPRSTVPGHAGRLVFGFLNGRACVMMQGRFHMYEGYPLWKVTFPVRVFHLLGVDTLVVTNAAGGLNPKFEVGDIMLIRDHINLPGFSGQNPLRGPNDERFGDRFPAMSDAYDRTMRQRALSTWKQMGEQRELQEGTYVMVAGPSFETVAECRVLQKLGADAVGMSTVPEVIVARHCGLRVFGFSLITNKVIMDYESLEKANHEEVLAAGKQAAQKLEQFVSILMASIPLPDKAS

gout patients = details: each arm: 40, 80 and 120 mg per day; 60 gout patients with baseline SU ≥8 mg/dL; cited from earlier work
MMP3 = assay: IL-1β-induced MMP3 expression at cellular and tissue levels; format: cell-based, human; details: cellular (mRNA and protein) levels and tissue levels
Description: (§1) In this study, it was observed that CD38 expression is increased in human knee cartilage of both osteoarthritis (OA) and aged donors (FIGS. 1A and 1B), in primary human knee OA chondrocytes (FIG. 1C) and in chondrocytes stimulated with IL-1, a pro-inflammatory cytokine implicated to play an important role in OA pathogenesis (FIG. 1E). […] In addition, NRH prevented IL-1β-induced CD38 expression at both mRNA and protein levels (FIGS. 2D and 2E) and decline of NAD levels and NAD/NADH ratio (FIGS. 2F and 2G). […] It was observed that NRH has higher potency than NR to inhibit IL-1β-induced catabolic responses in chondrocytes, evidenced by that similar efficacy was achieved by NRH used at concentration 10 times less than NR (data not shown).

MMP13 = assay: IL-1β-induced MMP13 expression at cellular and tissue levels; format: cell-based, human; details: cellular (mRNA and protein) levels and tissue levels
Description: as §1

chondrocytes = assay: IL-1β-induced catabolic responses in chondrocytes, NRH versus NR; format: cell-based; details: inhibition of IL-1β-induced catabolic responses; data not shown
Description: as §1

[5] = cited from earlier work; remark: listed apart in the source
[6] = tested on: cartilage matrix degradation; assay: IL-1β-induced release of matrix protein glycosaminoglycan (GAG); format: cell-based
Description: as §1

CD38 = assay: IL-1β-induced CD38 expression in chondrocytes; format: cell-based, human; details: mRNA and protein levels
Description: as §1

human OA chondrocytes [7] = assay: Cellular NAD, NADH and NAD/NADH ratio in human OA chondrocytes; format: cell-based
Description: as §1

post-traumatic OA model = assay: Post-traumatic OA model (DMM surgery) in mice, oral NRH; format: in vivo
Description: Given that NRH is a natural NAD precursor with oral bioavailability and its ability to not only promote NAD^+ biosynthesis, but also prohibit NAD^+ degradation by inhibiting CD38, it was next tested whether oral administration of NRH limits OA development in mice using a post-traumatic OA model. Destabilization of medial meniscus (DMM) surgery was performed on the right knee of mice to cause joint injury and started NRH treatment through gavage 2 week after the surgery. Pain behaviors such as pain sensitivity and spontaneous pain were evaluated by Von Frey and static weight bearing tests, respectively, at baseline and every 2 weeks after the surgery. At 10 weeks after the surgery, mice were sacrificed, and knee OA pathological changes including cartilage degradation, synovial inflammation and osteophyte formation were assessed.

[8] = 10 uM alone, serum-present (10% FCS), donors OA277, OA279
[9] = human OA chondrocytes stimulated with NRH
[10] = NRH by gavage from 2 weeks after DMM surgery, assessed at 10 weeks
[11] = at 6, 8 and 10 weeks after the surgery

Question: With `NC(=O)c1ccc[n+]([C@@H]2O[C@H](CO)[C@@H](O)[C@H]2O)c1` [NR, nicotinamide riboside] as the compound, how does the “stability in plasma (degradation to NAM)” value [1] read?
Answer: Its value is “rapidly degraded”.

Question: What about the tolerability and safety ([2]; chronic oral supplementation, human) of the same compound?
Answer: Its tolerability and safety is “well-tolerated, safe”.

Question: And the “human NAD+ metabolism” value ([2]; chronic oral supplementation)?
Answer: The value was “boosted”.

Question: What about the “blood pressure and exercise performance” value ([2]; dietary supplementation, elderly individuals) of the same compound?
Answer: The value was “only mild benefits”.

Question: What about the “glucose tolerance and β-cell secretory capacity” value ([2]; nondiabetic men with obesity) of the same compound?
Answer: The value was “no significant impact”.

Question: And the skeletal muscle mitochondria ([2]; obese and insulin-resistant men)?
Answer: Its skeletal muscle mitochondria is “no significant impact”.

Question: What about the “effect on IL-1β-induced NO release” value (human OA chondrocytes [3]; [8]) of the same compound?
Answer: Its value is “little effect”.

Question: What about the “effect on IL-1β-induced NO release” value (human OA chondrocytes [3]; NR 10 and 100 uM, serum-free, donor OA278) of the same compound?
Answer: The value was “robust inhibition”.

Question: And the “effect on IL-1β-induced NO release” value (human OA chondrocytes [3]; NR 10 and 100 uM, serum-present (10% FCS), donor OA278)?
Answer: The value was “little effect”.

Question: What about the “concentration at which significant inhibition of IL-1β-induced NO release was observed when used alone” value (human OA chondrocytes [3]) of the same compound?
Answer: Its value is 200 µM.

Question: And the “MSU crystal-induced infiltrating inflammatory cells” value [4]?
Answer: Its value is “significantly inhibited”.

Question: What does the source list for `O=c1[nH]cnc2c(CN3C[C@H](CO)[C@@H](O)C3)c[nH]c12` [Ulodesine]?
Answer: IC50 for PNP (PNP): in the nM concentration range; participants achieving the target SU of less than 6 mg/dL (gout patients): approximately one third

Question: For `NC(=O)C1=CN([C@@H]2O[C@H](CO)[C@@H](O)[C@H]2O)C=CC1` [NRH, dihydronicotinamide riboside], which “effect on IL-1β-induced NO release” value (human OA chondrocytes [3]; [8]) is on record?
Answer: The value was “little effect”.

Question: What about the “concentration at which significant inhibition of IL-1β-induced NO release was observed when used alone” value (human OA chondrocytes [3]) of the same compound?
Answer: Its value is 200 µM.

Question: What about the “IL-1β-induced expression of MMP3” value (MMP3) of the same compound?
Answer: The value was “completely attenuated”.

Question: And the “IL-1β-induced expression of MMP13” value (MMP13)?
Answer: The value was “completely attenuated”.

Question: And the “concentration of NRH relative to NR giving similar efficacy” value (chondrocytes)?
Answer: The value was 10 times less.

Question: And the “MSU crystal-induced infiltrating inflammatory cells” value [4]?
Answer: Its value is “significantly inhibited”.

Question: What about the “NRH in circulation after NRH treatment” value ([5]; mice) of the same compound?
Answer: Its value is “detectable”.

Question: And the “NR in circulation after NRH treatment versus after NR administration” value ([5]; mouse, in vivo)?
Answer: Its value is “much higher levels”.

Question: What about the “stability compared to NR” value ([5]; mouse, in vivo) of the same compound?
Answer: Its value is “more stable”.

Question: And the “IL-1β-induced release of glycosaminoglycan (GAG)” value [6]?
Answer: The value was “significantly inhibited”.

Question: And the “IL-1β-induced CD38 expression” value (CD38)?
Answer: Its value is “prevented”.

Question: And the “IL-1β-induced decline of NAD levels” value (human OA chondrocytes [7]; IL-1β stimulation)?
Answer: Its value is “prevented”.

Question: What about the “IL-1β-induced decline of NAD/NADH ratio” value (human OA chondrocytes [7]; IL-1β stimulation) of the same compound?
Answer: The value was “prevented”.

Question: And the NAD/NADH ratio (human OA chondrocytes [7]; [9])?
Answer: Its NAD/NADH ratio is “dramatically increased”.

Question: What about the “cellular levels of NAD” value (human OA chondrocytes [7]; [9]) of the same compound?
Answer: Its value is “dramatically increased”.

Question: What about the “cellular levels of NADH” value (human OA chondrocytes [7]; [9]) of the same compound?
Answer: Its value is “dramatically increased”.

Question: What about the cartilage damage (post-traumatic OA model; [10]) of the same compound?
Answer: Its cartilage damage is “significantly reduced”.

Question: And the “osteophyte size and maturity” value (post-traumatic OA model; [10])?
Answer: Its value is “significantly reduced”.

Question: And the synovial inflammation (post-traumatic OA model; [10])?
Answer: The synovial inflammation was “significantly reduced”.

Question: And the “paw withdraw threshold (Von Frey)” value (post-traumatic OA model; [11])?
Answer: Its value is “significantly increased”.

Question: And the weight bearing capacity (post-traumatic OA model; [11])?
Answer: Its weight bearing capacity is “significantly increased”.
